In patent US7371396B2, “Dermatological and cosmetic compositions” (Relivia SRL, priority 2001, dated 2008):

Key:
[1] = system: patients suffering from severe disabling atopic dermatitis (AD); assay: Test in vivo with atopic dermatitis subjects (SCORAD system); parameters: species or system human
Method: Experiments were carried out on patients (n=20) of both sexes, of age above 18 years, suffering from severe disabling atopic dermatitis (AD) unresponsive to the current topical treatments.
All patients were subjected to complete blood count and measurements of renal and hepatic functions prior to treatment. Patients who had been systemically treated two months previously with corticoids, antibiotics, psoralenes and other immunosuppressants or with UV were excluded. Patients were supposed not to use any corticoid topically.
Material—A commercially available formulation Triderm Lenil (ICIM International srl, Gallarate, Italy) was used as such (formulation I) or with the addition of 1×10^−2 mol (0.33 g) of Furfuryl palmitate (formulation II).
Triderm Lenil ingredients: aqua, petrolatum, paraffinnum liquidum, dimethicone, laureth-9, C12-C15 alkyl benzoate, soy sterol, phenyl trimethicone, cetearyl alcohol, ribes nigrum, bisabolol, tocopheryl acetate, dimethicone copolyol, capryloyl glycine, glycyrrhetinc acid, superoxide dismutase, phytosphingosine, polyquaternium-7, sodium carbomer, hydroxypropyl guar, disodium EDTA, farnesol, sodium chloride.
Treatment—Out of 20 patients, 10 were included in the furfuryl palmitate-treated group […] and 10 in the control group (formulation I). […] Patients were divided in two groups and treated twice a day for one months either with the Furfuryl palmitate-containing cream or with the placebo cream (control group). Evaluations—The progress of the disease was monitored with the SCORAD system (Dermatology 1993; 186: 23-31) drafted by European Task Force on Atopic Dermatitis (European Society of Pediatric Dermatology, Bordeaux, September 1990) with further modification by Hanifin and Rajka, thus by monitoring 3 criteria: • A) Lesione spread: analysis of surface involvement was performed during the clinical examination by drawing the involved areas on the evaluation sheet, then calculate the proportion of involved surface area segment by segment. For example, if ¾th of the right lower limb is interested by AD, the corresponding score is of about 7/9. • B) Grading of intensity: carried out in a chosen representative area in patients with localized lesions. In patients with areas varying in severity, a representative area of mean involvement is chosen. Dryness should be evaluated in a remote area of non-inflammatory skin. The elementary lesions were classified in the following manifestation: a) Erythema b) Edema/papulation c) Oozing/crusting d) Excoriation e) Lichenification, wherein each item is scored on a scale of 0 to 3, with the total for the intensity criteria is based on a maximum of 18 • C) Subjective signs: by looking at the two most representative items concerning the quality of life of patients during the 3 previous days, i.e. pruritus and insomnia. The patient and/or one of their relatives expresses the intensity of pruritus or insomnia using a visual analog scale graded between 0 and 10.
At the beginning of the treatment, the body area affected by eczema was 69% on the average in all patients. […] At the end of the treatment, the mean scores for itching decreased from 2.3 to 0.6 and for sleep disorders from 7.9 to 1.0. only in the furfuryl palmitate-treated patients.

[2] = Nomeir et al., Drug Metab Dispos 20(2):198-204, 1992; cited from earlier work
[3] = at the end of the treatment, 10 patients in the treated group

Row | Compound | mean of the values concerning the different clinical symptoms (SCORAD) ([1]; after the first two weeks of treatment, cream with furfuryl palmitate (formulation II) twice a day, decreased from 57.0 (SEM 1.6 n=10) at start) | mean score for itching ([1]; at the end of the treatment (one month, twice a day), decreased from 2.3) | mean score for sleep disorders ([1]; at the end of the treatment (one month, twice a day), decreased from 7.9) | number of treated patients with significant improvements of all the considered parameters [1, 3] | treated patients with improvement limited to skin scaling [1, 3] | body area affected by eczema ([1]; reached during treatment, twice a day for one month, 69% on the average in all patients at the beginning) [%] | melting point [°C] | toxicity compared with furfuryl alcohol [2]
1 | CCCCCCCCCCCCCCCC(=O)OCc1ccco1 [furfuryl palmitate, Furfuryl Palmitate] | 21.5 | 0.6 | 1.0 | 8 | two of them only showed improvements concerning skin scaling | 27 | 31 to 33 | –
2 | O=Cc1ccco1 [furfural] | – | – | – | – | – | – | – | at least twice as toxic as the furfuryl alcohol
